Laboratory results reported in US8088757B2, “Betulinol derivatives as anti-cancer agents” (priority 2004, dated 2012).
Read-outs that look alike come from different tables or passages of the source.

Legend:
LNCaP = test: MTT cytotoxicity assay, LNCaP prostate cancer cells; assay type: cell-based, human
Experimental: The human prostate cancer LNCaP, PC-3, and DU-145 cell lines, as well as human fibroblast cell line, were obtained from the American Type Culture Collection (“ATCC”) and maintained in RPMI-1640, F-12k, and MEM mediums, respectively, supplemented with 10% FBS. Cell lines were maintained at 37° C. under a humidified atmosphere and 5% CO2 for testing of the cytotoxicity of betulinol derivatives. The cytotoxicity assay was performed using MTT assay according to the instructions of ATCC protocol. Cells 1×10^5 in 0.1 ml/well were plated in 96-well culture plates (Costar) and incubated with a different dilution of betulinol derivatives for 24, 48, and 72 hours. Ten μl of 3-[4,5-dimethylthiazol-2-yl]-2,5 diphenyl tetrazolium bromide was added into each well at the end of each incubation period. The reaction product, formazan, was dissolved in the detergent, and the absorbance was read at 540 nm (Ref).
(§1) However, these compounds were not tested on prostate cancer LNCaP cell line by NCI. […] The anti-tumor activity of the compounds was determined at three doses and the total growth inhibition kill effect as pertinent of the control at 24, 48, and 72 hours as presented in Table 11.

PC-3 = test: In vitro cytotoxicity, Prostate (2), PC-3; assay type: cell-based, human
T-47d = test: In vitro cytotoxicity, Breast (2), T-47d; assay type: cell-based, human
Experimental: as §1

DU-145 = test: In vitro cytotoxicity, Prostate (2), DU-145; assay type: cell-based, human
U251 = test: In vitro cytotoxicity, CNS (2), U251; assay type: cell-based, human
MCF7 = test: In vitro cytotoxicity, Breast (2), MCF7; assay type: cell-based, human
RXF 393 = test: In vitro cytotoxicity, Renal (2), RXF 393; assay type: cell-based, human
OVCAR-5 = test: In vitro cytotoxicity, Ovarian (2), OVCAR-5; assay type: cell-based, human
Experimental: as §1

SF-268 = test: In vitro cytotoxicity, CNS (2), SF-268; assay type: cell-based, human
MALME-3M = test: In vitro cytotoxicity, Melanoma (2), MALME-3M; assay type: cell-based, human
OVACR-3 = test: In vitro cytotoxicity, Ovarian (2), OVACR-3; assay type: cell-based, human
Experimental: as §1

NCI-H322M = test: In vitro cytotoxicity, Lung (2), NCI-H322M; assay type: cell-based, human
Experimental: as §1

HOP-92 = test: In vitro cytotoxicity, Lung (2), HOP-92; assay type: cell-based, human
Experimental: as §1

CAKI-1 = test: In vitro cytotoxicity, Renal (2), CAKI-1; assay type: cell-based, human
Experimental: as §1

NCI-H460 = test: In vitro cytotoxicity, Lung (2), NCI-H460; assay type: cell-based, human
Experimental: as §1

TK-10 = test: In vitro cytotoxicity, Renal (2), TK-10; assay type: cell-based, human
Experimental: as §1

[1] = Tolerability of solubilized drug in mice with prostate cancer cell xenografts; assay type: in vivo; settings: 22% ethanol, 2×10^−3 mol per liter of betulonic acid
184B5/HER = test: In vitro cytotoxicity, Breast (1), 184B5/HER; assay type: cell-based; settings: 1 × 10^−4 M
[2] = Homo sapiens, 24 hours, 2.5 × 10^−5 M, read-out: Growth Inhibition %
[3] = Homo sapiens, 24 hours, 2.5 × 10^−6 M, read-out: Growth Inhibition %
[4] = Homo sapiens, 24 hours, 2.5 × 10^−7 M, read-out: Growth Inhibition %
[5] = Homo sapiens, 48 hours, 2.5 × 10^−5 M, read-out: Growth Inhibition %
[6] = Homo sapiens, 48 hours, 2.5 × 10^−6 M, read-out: Growth Inhibition %
[7] = Homo sapiens, 48 hours, 2.5 × 10^−7 M, read-out: Growth Inhibition %

Compound: C=C(C)[C@@H]1CC[C@]2(CO)CC[C@]3(C)[C@H](CC[C@@H]4[C@@]5(C)CC[C@H](OC(C)=O)C(C)(C)[C@@H]5CC[C@]43C)[C@@H]12 [Compound 8, 3-Acetoxy Betulin]
- Growth Inhibition % (LNCaP; 24 hours, 2.5 × 10^−7 M): 0%

Compound: C=C(C)C1CCC2(C(=O)NCCCCC(NC(=O)OC(C)(C)C)C(=O)OC)CC[C@]3(C)[C@H](CC[C@@H]4[C@@]5(C)CCC(=O)C(C)(C)[C@@H]5CC[C@]43C)C12 (stereo partly drawn) [Monomer]
- cells killed (LNCaP; 1×10^−4 M): ~80%
- inhibition at 100 µM (LNCaP; Homo sapiens, 48 hours, 1 × 10^−4 M, read-out: Growth Inhibition %): 82.8 ± 14.3%

Compound: C=C(C)[C@@H]1CC[C@]2(COC(C)=O)CC[C@]3(C)[C@H](CC[C@@H]4[C@@]5(C)CC[C@H](OC(C)=O)C(C)(C)[C@@H]5CC[C@]43C)[C@@H]12 [Compound 6, Betulin Diacetate]
- Percent Killed (PC-3; PC-3, 1 × 10^−4 M): 25%
- Percent Killed (PC-3; PC-3, 1 × 10^−5 M): 15%
- Percent Killed (T-47d; 1 × 10^−4 M): 100%
- Percent Killed (T-47d; 1 × 10^−5 M): 100%
- Percent Killed (T-47d; 1 × 10^−6 M): 100%
- Percent Killed (T-47d; 1 × 10^−7 M): 23%
- Percent Killed (DU-145; DU-145, 1 × 10^−4 M): 100%
- Percent Killed (DU-145; DU-145, 1 × 10^−5 M): 100%
- Percent Killed (DU-145; DU-145, 1 × 10^−6 M): 100%
- Percent Killed (DU-145; DU-145, 1 × 10^−7 M): 100%
- Percent Killed (DU-145; DU-145, 1 × 10^−8 M): 27%
- Percent Killed (U251; U251, 1 × 10^−4 M): 100%
- Percent Killed (U251; U251, 1 × 10^−5 M): 100%
- Percent Killed (U251; U251, 1 × 10^−6 M): 100%
- Percent Killed (U251; U251, 1 × 10^−7 M): 100%
- Percent Killed (MCF7; MCF7, 1 × 10^−4 M): 100%
- Percent Killed (MCF7; MCF7, 1 × 10^−5 M): 100%
- Percent Killed (MCF7; MCF7, 1 × 10^−6 M): 100%
- Percent Killed (MCF7; MCF7, 1 × 10^−7 M): 100%
- Percent Killed (RXF 393; RXF 393, 1 × 10^−4 M): 100%
- Percent Killed (RXF 393; RXF 393, 1 × 10^−5 M): 100%
- Percent Killed (RXF 393; RXF 393, 1 × 10^−6 M): 100%
- Percent Killed (RXF 393; RXF 393, 1 × 10^−7 M): 97%
- Percent Killed (RXF 393; RXF 393, 1 × 10^−8 M): 15%
- Percent Killed (OVCAR-5; OVCAR-5, 1 × 10^−4 M): 100%
- Percent Killed (OVCAR-5; OVCAR-5, 1 × 10^−5 M): 100%
- Percent Killed (OVCAR-5; OVCAR-5, 1 × 10^−6 M): 100%
- Percent Killed (SF-268; SF-268, 1 × 10^−4 M): 100%
- Percent Killed (SF-268; SF-268, 1 × 10^−5 M): 100%
- Percent Killed (SF-268; SF-268, 1 × 10^−6 M): 100%
- Percent Killed (SF-268; SF-268, 1 × 10^−7 M): 75%
- Percent Killed (SF-268; SF-268, 1 × 10^−8 M): 15%
- inhibition at 25 µM (LNCaP; [2]): 17%
- inhibition at 2.5 µM (LNCaP; [3]): 18.7%
- inhibition at 0.25 µM (LNCaP; [4]): 0%
- inhibition at 25 µM (LNCaP; [5]): 56.6%
- inhibition at 2.5 µM (LNCaP; [6]): 46.7%
- inhibition at 0.25 µM (LNCaP; [7]): 27.9%
- Percent Killed (MALME-3M; 1 × 10^−4 M): 100%
- Percent Killed (MALME-3M; 1 × 10^−5 M): 100%
- Percent Killed (MALME-3M; 1 × 10^−6 M): 100%
- Percent Killed (MALME-3M; 1 × 10^−7 M): 100%
- Percent Killed (MALME-3M; 1 × 10^−8 M): 98%
- Percent Killed (OVACR-3; OVACR-3, 1 × 10^−4 M): 100%
- Percent Killed (OVACR-3; OVACR-3, 1 × 10^−5 M): 100%
- Percent Killed (OVACR-3; OVACR-3, 1 × 10^−6 M): 96%
- Percent Killed (NCI-H322M; 1 × 10^−4 M): 100%
- Percent Killed (NCI-H322M; 1 × 10^−5 M): 100%
- Percent Killed (NCI-H322M; 1 × 10^−6 M): 100%
- Percent Killed (HOP-92; HOP-92, 1 × 10^−4 M): 100%
- Percent Killed (HOP-92; HOP-92, 1 × 10^−5 M): 100%
- Percent Killed (HOP-92; HOP-92, 1 × 10^−6 M): 100%
- Percent Killed (CAKI-1; CAKI-1, 1 × 10^−4 M): 100%
- Percent Killed (CAKI-1; CAKI-1, 1 × 10^−5 M): 100%
- Percent Killed (CAKI-1; CAKI-1, 1 × 10^−6 M): 100%
- Percent Killed (NCI-H460; NCI-H460, 1 × 10^−4 M): 100%
- Percent Killed (NCI-H460; NCI-H460, 1 × 10^−5 M): 100%
- Percent Killed (NCI-H460; NCI-H460, 1 × 10^−6 M): 100%
- Percent Killed (NCI-H460; NCI-H460, 1 × 10^−7 M): 25%
- Percent Killed (TK-10; TK-10, 1 × 10^−4 M): 100%
- Percent Killed (TK-10; TK-10, 1 × 10^−5 M): 100%
- Percent Killed (TK-10; TK-10, 1 × 10^−6 M): 49%

Compound: C=C(C)C1CCC2(CO)CC[C@]3(C)[C@H](CC[C@@H]4[C@@]5(C)CCC(O)C(C)(C)[C@@H]5CC[C@]43C)C12 (stereo partly drawn) [Compound 1, Betulinol]
- inhibition at 25 µM (LNCaP; [2]): 47.2%
- inhibition at 2.5 µM (LNCaP; [3]): 11.9%
- inhibition at 0.25 µM (LNCaP; [4]): 8.24%
- inhibition at 25 µM (LNCaP; [5]): 31%
- inhibition at 2.5 µM (LNCaP; [6]): 13.8%
- inhibition at 0.25 µM (LNCaP; [7]): 10.6%

Compound: C=C(C)[C@@H]1CC[C@]2(C(=O)O)CC[C@]3(C)[C@H](CC[C@@H]4[C@@]5(C)CC[C@H](O)C(C)(C)[C@@H]5CC[C@]43C)[C@@H]12 [Compound 2, Betulinic Acid]
- Growth Inhibition % (LNCaP; 24 hours, 2.5 × 10^−5 M): 41.0%

Compound: C=C(C)[C@@H]1CC[C@]2(C=O)CC[C@]3(C)[C@H](CC[C@@H]4[C@@]5(C)CC[C@H](O)C(C)(C)[C@@H]5CC[C@]43C)[C@@H]12 [Compound 3, Betulin Aldehyde]
- Growth Inhibition % (LNCaP; 24 hours, 2.5 × 10^−6 M): 11.0%

Compound: C=C(C)C1CCC2(C(=O)NCCCCC(NC(=O)OC(C)(C)C)C(=O)O)CC[C@]3(C)[C@H](CC[C@@H]4[C@@]5(C)CCC(=O)C(C)(C)[C@@H]5CC[C@]43C)C12 (stereo partly drawn) [Boc-Monomer]
- tolerability [1]: well tolerated

Compound: C=C(C)C1CCC2(COC)CCC3(C)C(CCC4C5(C)CCC(OC)C(C)(C)C5CCC43C)C12 (stereo not drawn) [Compound 7, Betulin Dimethyl ether (Cornelon)]
- Percent Killed (MCF7; MCF7, 1 × 10^−4 M): 97%
- Percent Killed (SF-268; SF-268, 1 × 10^−4 M): 100%
- inhibition at 25 µM (LNCaP; [2]): 45%
- inhibition at 2.5 µM (LNCaP; [3]): 18.1%
- inhibition at 0.25 µM (LNCaP; [4]): 7.76%
- inhibition at 25 µM (LNCaP; [5]): 50.9%
- inhibition at 2.5 µM (LNCaP; [6]): 44%
- inhibition at 0.25 µM (LNCaP; [7]): 27.9%
- Percent Killed (184B5/HER): Toxic
- Percent Killed (NCI-H460; NCI-H460, 1 × 10^−4 M): 80%

Compound: C=C(C)C1CCC2(C=O)CCC3(C)C(CCC4C5(C)CCC(=O)C(C)(C)C5CCC43C)C12 (stereo not drawn) [Compound 5, Betulon Aldehyde]
- Percent Killed (MCF7; MCF7, 1 × 10^−4 M): 68%
- Percent Killed (SF-268; SF-268, 1 × 10^−4 M): 27%
- inhibition at 25 µM (LNCaP; [2]): 19%
- inhibition at 2.5 µM (LNCaP; [3]): 21.9%
- inhibition at 0.25 µM (LNCaP; [4]): 6.34%
- inhibition at 25 µM (LNCaP; [5]): 40.2%
- inhibition at 2.5 µM (LNCaP; [6]): 47.4%
- inhibition at 0.25 µM (LNCaP; [7]): 29.8%
- Percent Killed (NCI-H460; NCI-H460, 1 × 10^−4 M): 89%
